This is an account of results in PubChem BioAssay AID196 (DTP/NCI, 2004).

Structures are written as SMILES. “And” between values parts separate entries of the source, which are not always exact repeats. Equal entries are not always repeated. Inconclusive results and toxic doses are left out.

This test has as its system BDF1 mice, intracerebral B16 melanoma, median survival T/C. As to the kind of experiment: NCI In Vivo Anticancer Drug Screen. Data for tumor model B16 Melanoma (intracerebral) in B6D2F1 (BDF1) mice. To be noted: endpoint: median survival time, higher = longer survival. The protocol: The antitumor activity of compounds was measured in mice bearing transplantable tumors. Survival or tumor size were measured and the results are expressed as the measurement made in the treated group (T) divided by the measurement made in the vehicle treated control group (C). The tumor model used in this assay is B16 Melanoma (intracerebral) in B6D2F1 (BDF1) mice

[1] abbreviates: dose: 12.5 mg/kg/injection, schedule: Q01DX009 (ip), vehicle: saline.
Where [2] appears, read: dose: 25.0 mg/kg/injection, schedule: Q01DX009 (ip), vehicle: saline.
[3] abbreviates: dose: 50.0 mg/kg/injection, schedule: Q01DX009 (ip), vehicle: saline.
Setting [4] is: dose: 100.0 mg/kg/injection, schedule: Q01DX009 (ip), vehicle: saline.
Where [5] appears, read: dose: 64.0 mg/kg/injection, schedule: Q01DX005 (ip), vehicle: saline with Tween-80.
The mark [6] stands for this setting: dose: 128.0 mg/kg/injection, schedule: Q01DX005 (ip), vehicle: saline with Tween-80.
The mark [7] stands for this setting: dose: 0.25 mg/kg/injection, schedule: Q01DX009 (ip), vehicle: saline.
[8] abbreviates: dose: 0.5 mg/kg/injection, schedule: Q01DX009 (ip), vehicle: saline.
Where [9] appears, read: dose: 1.0 mg/kg/injection, schedule: Q01DX009 (ip), vehicle: saline.
Setting [10] is: dose: 2.0 mg/kg/injection, schedule: Q01DX009 (ip), vehicle: saline.

For the compound `O=P1(N(CCCl)CCCl)NCCCO1` (stereo not given), the T/C under setting [1] is 116 % of control and 92 % of control; the T/C (dose: 12.5 mg/kg/injection, schedule: Q01DX009 (ip), vehicle: water) was 108 % of control; the T/C under setting [2] was 100 % of control and 108 % of control; the T/C (dose: 25.0 mg/kg/injection, schedule: Q01DX009 (ip), vehicle: water) is 116 % of control; the T/C under setting [3] was 120 % of control and 121 % of control; the T/C under setting [4] is 95 % of control. Further, the T/C (dose: 100.0 mg/kg/injection, schedule: Q01DX009 (ip), vehicle: water) is 104 % of control.
Consider `N=[N+]=CC(=O)CCC(NC(=O)C(CCC(=O)C=[N+]=N)NC(=O)CCC(N)C(=O)O)C(=O)O` (stereo not given), for which the T/C (dose: 0.05 mg/kg/injection, schedule: Q01DX005 (ip), vehicle: Klucel (hydroxypropylcellulose) (HPC)) is 124 % of control and 108 % of control; the T/C (dose: 0.1 mg/kg/injection, schedule: Q01DX005 (ip), vehicle: Klucel (hydroxypropylcellulose) (HPC)) was 97 % of control and 108 % of control; the T/C (dose: 0.2 mg/kg/injection, schedule: Q01DX005 (ip), vehicle: Klucel (hydroxypropylcellulose) (HPC)) was 120 % of control and 111 % of control; the T/C (dose: 0.4 mg/kg/injection, schedule: Q01DX005 (ip), vehicle: Klucel (hydroxypropylcellulose) (HPC)) is 112 % of control.
As to `CN(C)/N=N/c1[nH]ncc1C(N)=O`, the T/C reads like this: under setting [5], 154 % of control; under setting [6], 121 % of control.
Turning to `CN(N=O)C(N)=O`, the T/C (dose: 1.56 mg/kg/injection, schedule: Q01DX009 (ip), vehicle: saline) was 118 % of control; the T/C (dose: 6.25 mg/kg/injection, schedule: Q01DX009 (ip), vehicle: saline) was 112 % of control; the T/C under setting [2] was 168 % of control.
On to `OC(CBr)C(O)C(O)C(O)CBr` (stereo not given), for which the T/C is 92 % of control under setting [2]; 100 % of control and 108 % of control (2×) under setting [3]; 116 % of control and 117 % of control and 100 % of control under setting [4]; 117 % of control and 104 % of control (dose: 200.0 mg/kg/injection, schedule: Q01DX009 (ip), vehicle: saline); 120 % of control (dose: 400.0 mg/kg/injection, schedule: Q01DX009 (ip), vehicle: saline).
`OC(C1CO1)C(O)C1CO1` (stereo not given): the T/C is, setting by setting: (dose: 0.12 mg/kg/injection, schedule: Q01DX009 (ip), vehicle: saline) 100 % of control and 101 % of control; under setting [7], 122 % of control and 110 % of control; under setting [8], 94 % of control and 112 % of control; under setting [9], 120 % of control and 103 % of control; under setting [10], 123 % of control.
For `COc1cccc2c1C(=O)c1c(O)c3c(c(O)c1C2=O)C[C@@](O)(C(C)=O)C[C@@H]3OC1CC(N)C(O)C(C)O1` (stereo not given in full), the T/C runs as follows: (dose: 0.13 mg/kg/injection, schedule: Q01DX009 (ip), vehicle: saline) 104 % of control; under setting [7], 116 % of control and 87 % of control and 109 % of control; (dose: 0.25 mg/kg/injection, schedule: Q03HX008 (ip), vehicle: saline) 92 % of control; under setting [8], 91 % of control and 104 % of control and 109 % of control; (dose: 0.5 mg/kg/injection, schedule: Q01DX009 (ip), vehicle: water) 90 % of control; (dose: 0.5 mg/kg/injection, schedule: Q03HX008 (ip), vehicle: saline) 100 % of control. The T/C was 100 % of control under setting [9]; 109 % of control (dose: 1.0 mg/kg/injection, schedule: Q01DX009 (ip), vehicle: water); 100 % of control (dose: 1.0 mg/kg/injection, schedule: Q03HX008 (ip), vehicle: saline); 100 % of control under setting [10]; 100 % of control (dose: 2.0 mg/kg/injection, schedule: Q01DX009 (ip), vehicle: water).
As to `O=NN(CCF)C(=O)NC1CCCCC1`, the T/C runs as follows: (dose: 5.1 mg/kg/injection, schedule: Q01DX001 (ip), vehicle: other) 107 % of control; (dose: 10.2 mg/kg/injection, schedule: Q01DX001 (ip), vehicle: other) 112 % of control; (dose: 13.0 mg/kg/injection, schedule: Q01DX001 (ip), vehicle: Klucel (hydroxypropylcellulose) (HPC)) 104 % of control; (dose: 17.8 mg/kg/injection, schedule: Q01DX001 (ip), vehicle: Klucel (hydroxypropylcellulose) (HPC)) 111 % of control; (dose: 21.6 mg/kg/injection, schedule: Q01DX001 (ip), vehicle: Klucel (hydroxypropylcellulose) (HPC)) 174 % of control; (dose: 26.7 mg/kg/injection, schedule: Q01DX001 (ip), vehicle: Klucel (hydroxypropylcellulose) (HPC)) 115 % of control. Besides, the T/C (dose: 40.0 mg/kg/injection, schedule: Q01DX001 (ip), vehicle: Klucel (hydroxypropylcellulose) (HPC)) is 180 % of control; the T/C (dose: 43.2 mg/kg/injection, schedule: Q01DX001 (ip), vehicle: other) was 180 % of control; the T/C (dose: 60.0 mg/kg/injection, schedule: Q01DX001 (ip), vehicle: Klucel (hydroxypropylcellulose) (HPC)) is 168 % of control and 269 % of control; the T/C (dose: 90.0 mg/kg/injection, schedule: Q01DX001 (ip), vehicle: Klucel (hydroxypropylcellulose) (HPC)) is 263 % of control; the T/C (dose: 162.8 mg/kg/injection, schedule: Q01DX001 (ip), vehicle: other) was 235 % of control.
For the compound `NC(=S)N/N=C/c1ccc(O)cn1`, the T/C runs as follows: (dose: 12.0 mg/kg/injection, schedule: Q01DX005 (ip), vehicle: saline) 96 % of control; (dose: 12.0 mg/kg/injection, schedule: Q01DX005 (ip), vehicle: suspension in saline) 103 % of control; (dose: 24.0 mg/kg/injection, schedule: Q01DX005 (ip), vehicle: saline) 93 % of control; (dose: 24.0 mg/kg/injection, schedule: Q01DX005 (ip), vehicle: suspension in saline) 96 % of control; (dose: 48.0 mg/kg/injection, schedule: Q01DX005 (ip), vehicle: saline) 100 % of control; (dose: 48.0 mg/kg/injection, schedule: Q01DX005 (ip), vehicle: suspension in saline) 91 % of control. Besides, the T/C by setting is: (dose: 96.0 mg/kg/injection, schedule: Q01DX005 (ip), vehicle: saline) 97 % of control; (dose: 96.0 mg/kg/injection, schedule: Q01DX005 (ip), vehicle: suspension in saline) 108 % of control.
Regarding `COS(C)(=O)=O`, the T/C by setting is: (dose: 16.0 mg/kg/injection, schedule: Q01DX005 (ip), vehicle: saline) 89 % of control; (dose: 32.0 mg/kg/injection, schedule: Q01DX005 (ip), vehicle: saline) 100 % of control; (dose: 64.0 mg/kg/injection, schedule: Q01DX005 (ip), vehicle: saline) 95 % of control; (dose: 128.0 mg/kg/injection, schedule: Q01DX005 (ip), vehicle: saline) 106 % of control.
As to `CN(C)/N=N/c1nc[nH]c1C(N)=O`, the T/C under setting [1] was 116 % of control and 113 % of control; the T/C (dose: 25.0 mg/kg/injection, schedule: Q01DX009 (ip), vehicle: saline with Tween-80) was 105 % of control; the T/C under setting [2] is 116 % of control and 122 % of control; the T/C (dose: 50.0 mg/kg/injection, schedule: Q01DX009 (ip), vehicle: saline with Tween-80) was 111 % of control; the T/C under setting [3] is 109 % of control; the T/C (dose: 100.0 mg/kg/injection, schedule: Q01DX009 (ip), vehicle: saline with Tween-80) is 117 % of control. In addition, the T/C is 122 % of control under setting [4] and 112 % of control (dose: 200.0 mg/kg/injection, schedule: Q01DX009 (ip), vehicle: saline with Tween-80).
`Nc1nncs1`: the T/C runs as follows: under setting [5], 100 % of control and 107 % of control; under setting [6], 119 % of control and 97 % of control; (dose: 256.0 mg/kg/injection, schedule: Q01DX005 (ip), vehicle: saline with Tween-80) 113 % of control; (dose: 512.0 mg/kg/injection, schedule: Q01DX005 (ip), vehicle: saline with Tween-80) 113 % of control.
In the case of `COC1=C(N2CC2)C(=O)C(OC)=C(N2CC2)C1=O`, the T/C was 115 % of control under setting [8]; 107 % of control under setting [9]; 117 % of control under setting [10]; 86 % of control (dose: 4.0 mg/kg/injection, schedule: Q01DX009 (ip), vehicle: saline).
As to `CN(C)N=Nc1ccc2c(c1)N(C)c1ccc(Cl)cc1S2`, the T/C runs as follows: (dose: 6.25 mg/kg/injection, schedule: Q01DX009 (ip), vehicle: other) 97 % of control; (dose: 12.5 mg/kg/injection, schedule: Q01DX009 (ip), vehicle: other) 101 % of control; (dose: 25.0 mg/kg/injection, schedule: Q01DX009 (ip), vehicle: other) 102 % of control; (dose: 100.0 mg/kg/injection, schedule: Q01DX009 (ip), vehicle: other) 112 % of control.
